From paper PMC9369311, “Examination of Intracellular GPCR-Mediated Signaling with High Temporal Resolution” (International Journal of Molecular Sciences, 2022)
Values joined by “and” are separate entries in the source; they are usually repeats but may differ in a detail not shown here. Identical values can stand only once. Like-named read-outs stand apart in the source and are kept apart here.

Biological target: T1, DmOctα1B receptor (Drosophila melanogaster, UniProt Q7JQF1)
T1 construct: expressed in transfected cells
T1 sequence (Q7JQF1 1-645): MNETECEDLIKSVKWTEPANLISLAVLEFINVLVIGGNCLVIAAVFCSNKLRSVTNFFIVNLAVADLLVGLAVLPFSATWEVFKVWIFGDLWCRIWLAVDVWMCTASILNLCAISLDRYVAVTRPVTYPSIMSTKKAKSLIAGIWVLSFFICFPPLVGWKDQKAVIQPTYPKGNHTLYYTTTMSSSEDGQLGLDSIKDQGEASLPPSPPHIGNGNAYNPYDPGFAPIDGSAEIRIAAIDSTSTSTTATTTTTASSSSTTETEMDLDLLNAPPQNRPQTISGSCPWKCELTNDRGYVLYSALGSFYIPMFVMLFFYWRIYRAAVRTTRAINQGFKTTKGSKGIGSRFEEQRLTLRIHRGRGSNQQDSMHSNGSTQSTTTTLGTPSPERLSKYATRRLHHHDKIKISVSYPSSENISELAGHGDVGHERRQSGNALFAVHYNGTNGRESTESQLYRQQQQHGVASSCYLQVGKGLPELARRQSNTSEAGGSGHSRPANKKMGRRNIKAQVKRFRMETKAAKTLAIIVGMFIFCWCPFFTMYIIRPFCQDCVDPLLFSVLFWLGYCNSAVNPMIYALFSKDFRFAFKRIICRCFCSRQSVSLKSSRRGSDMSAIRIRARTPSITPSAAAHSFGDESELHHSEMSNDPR
Assay: Ca2+ fluorimetry in plate reader (96 MWP), DmOctα1B-expressing HEK293 cells
Assay type: cell-based
Protocol: Both the DmOctα1B receptor- and DmOctβ1 receptor-expressing (=flpTM-DmOctβ1) cell lines were initially investigated via Ca^2+ fluorimetric measurements in a plate reader. The cells were seeded in 96 well plates and loaded with Fluo-4, enabling the detection of changes in [Ca^2+]i. The Fluo-4 was excited at 485 nm and the fluorescence emission was recorded at 510 nm. To overcome the cAMP degradation by cell-endogenous phosphodiesterases, the DmOctβ1-expressing cells were treated with 100 µM iso-butylmethylxanthine (IBMX). Prior to the ligand application, the basal fluorescence (F0) was recorded and the concentration–response curves were generated by plotting the changes in fluorescence ((Fmax − F0)/F0 = ΔF/F0) against the ligand concentrations. For a better comparison, the fluorescence intensities were normalized. The maximal change in fluorescence for each of the stimulation series was defined as 100%. The EC50 values were determined from a nonlinear regression plot (four parameters) using GraphPad Prism v5.04 for analysis and display.
In order to omit loading with the fluorescent dye, both the DmOctα1B-expressing cells and flpTM-DmOctβ1 cells were stably transfected with a construct encoding the cytosolic version of GCaMP3.0. As in the previous experiment with Fluo-4, the GCaMP3.0-expressing cell lines were seeded in 96 well plates and incubated with the same series of increasing octopamine concentrations. The GCaMP3.0 was excited at 485 nm and the fluorescence emission was recorded at 510 nm. The basal fluorescence (F0) was recorded before adding the octopamine concentration series. The fluorescence intensities were normalized to the maximal change in fluorescence, defined as 100%. The concentration–response curves were generated with GraphPad Prism v5.04. In Figure 1, the concentration–response curves obtained with Fluo-4 and GCaMP3.0 are depicted for both of the receptors. […]

SMILES: NCC(O)c1ccc(O)cc1 (stereo not drawn) [octopamine]
- EC50 (DmOctα1B cells loaded with Fluo-4, 96 MWP plate reader, read-out: EC50): ~12 nM and 12 nM
- EC50 (DmOctα1B-GCaMP3.0 cells, 96 MWP plate reader, read-out: EC50): 14 nM
- EC50 (DmOctα1B-GCaMP3.0 cells, 96 MWP, given as logEC50 (negative), read-out: logEC50 ± SD (converted)): 15.8 nM
